US8420654B2 (Eli Lilly and Company, priority 2008, dated 2013)

How the values were obtained:
Rat oral bioavailability = format: in vivo; conditions: Sprague-Dawley, plasma, fasted male SD rats, IV 0.25 mg/kg, PO 1 mg/kg, based on AUC0-24hr, mean s.d., n=3
Protocol: Methods for accessing bioavailability are well appreciated in the art. One such reference is Medicinal Research Reviews Vol 21 No. 5 382-396 (2001). Bioavailability of compounds may be estimated essentially as follows.
Cohorts of three or four 250-450 gram male Sprague-Dawley rats or approximately 10 kg Beagle dogs (female or male) are used. […] Dogs are administered i.v. by cannulated cephalic vein and blood collections are by jugular vein. Animals are first dosed at 0.25 mg/kg i.v. and blood samples (0.2 mL) are then collected using EDTA as an anticoagulant at 0.0830, 0.25, 0.50, 1, 2, 4, 8, 12, 24, 48, 72, 96, and 120 hours. Next after at least two days and after 18-24 hours fasting, the animals are dosed at 1.0 mg/kg by oral gavage. During the course of a study the total of blood (ml) collected is not to exceed 1% of total body weight in grams. Should larger blood volumes be required, the sampled blood volume is replace with heparinized whole blood from a donor animal. When using a cross-over study design, rats receive a volume of heparinized whole blood following the final sample of each study day approximately equal to that removed during study.
Compound plasma concentrations are measured by LC/MS/MS assays. Data are then analyzed using standard non-compartmental pharmacokinetic analysis. […]

CYP3A = assay: Human CYP fingerprinting, ketoconazole inhibitor; format: in vitro ADME; conditions: 4 μM, human liver microsomes, 30 min, ketoconazole 10 μM
Protocol: (§1) CYP fingerprinting is well established technique and is used as an indication of potential risk of drug-drug interactions in the pharmaceutical sciences. Compounds of the present invention may be assayed by well known methods, essentially as follows: Compounds are incubated at 37° C. at a final concentration of 4 μM with pooled, mixed gender, human liver microsomes and 1 mM NADPH ([…]) (final conc.) for 0 and 30 min. without any CYP inhibitor and with each CYP inhibitor in separate incubations for 30 min. Each inhibitor is specific for an individual cytochrome P450. The specific inhibitors used for CYPs 2C9, 2D6 and 3A were sulfaphenazole, quinidine and ketoconazole, respectively. Ketoconazole (CYP3A) is made up at 25 mM in DMSO and then diluted in buffer to a final concetration of 10 μM. Quinidine (CYP2D6) is made up at 5 mM in 50/50 acetonitrile/water and then diluted in buffer to a final concetration of 10 μM. Sulfaphenazole (CYP2C9) is made up at 100 mM in DMSO and then diluted in buffer to a final concetration of 5 μM. Samples are analyzed by LC-MS in positive or negative electrospray mode using a Waters Acquity Ultra Performance LC coupled to a MicroMass Q-T of-2 mass spectrometer.
(§2) Data are analyzed using MetaboLynx™ version 4.1. With inhibitor present, a reduction in metabolite peak area of less than 30% (relative to the uninhibited control incubation) receives a designation of low risk of Drug Drug Interaction (DDI), a reduction in peak area between 30% and 70% receives a moderate risk of DDI and a reduction of more than 70% receives a high risk of DDI.

CYP2D6 = biological target: T1, CYP2D6 (Homo sapiens, UniProt P10635); assay: Human CYP fingerprinting, quinidine inhibitor; format: in vitro ADME; conditions: 4 μM, human liver microsomes, 30 min, quinidine 10 μM
T1 construct: pooled, mixed gender, human liver microsomes; from tissue; host or cells: pooled, mixed gender human liver microsomes
Protocol: as §1, §2

T1 sequence (P10635 whole entry): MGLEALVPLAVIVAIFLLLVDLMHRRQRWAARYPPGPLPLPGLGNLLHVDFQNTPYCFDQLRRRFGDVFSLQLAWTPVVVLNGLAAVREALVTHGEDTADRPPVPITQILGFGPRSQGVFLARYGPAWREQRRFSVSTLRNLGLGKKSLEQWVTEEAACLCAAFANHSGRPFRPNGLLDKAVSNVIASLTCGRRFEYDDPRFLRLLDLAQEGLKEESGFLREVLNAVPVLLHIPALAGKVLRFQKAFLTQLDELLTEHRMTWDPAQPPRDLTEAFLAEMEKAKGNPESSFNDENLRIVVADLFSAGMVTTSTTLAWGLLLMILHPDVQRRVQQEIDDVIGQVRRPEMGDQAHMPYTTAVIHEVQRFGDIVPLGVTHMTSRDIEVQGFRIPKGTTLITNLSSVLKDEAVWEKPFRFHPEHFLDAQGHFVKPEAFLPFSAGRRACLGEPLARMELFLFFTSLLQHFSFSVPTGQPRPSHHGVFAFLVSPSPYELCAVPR

SMILES: CC(C)(N[C@@H]1C[C@H](c2cccc(OC(F)(F)F)c2)N(c2ccc(C(F)(F)F)cc2)C1=O)c1ccnc(C(F)(F)F)n1.Cc1ccc(S(=O)(=O)O)cc1 [Example 5, (3R,5R)-3-[1-Methyl-1-(2-trifluoromethyl-pyrimidin-4-yl)-ethylamino]-5-(3-trifluoromethoxy-phenyl)-1-(4-trifluoromethyl-phenyl)-pyrrolidin-2-one tosylate]
- bioavailability (Rat oral bioavailability): 51%
- Risk of Drug Drug Interaction (DDI) CYP3A (CYP3A): low (a reduction in metabolite peak area of less than 30% (relative to the uninhibited control incubation) receives a designation of low risk of Drug Drug Interaction (DDI))
- Risk of Drug Drug Interaction (DDI) CYP2D6 (CYP2D6): low (a reduction in metabolite peak area of less than 30% (relative to the uninhibited control incubation) receives a designation of low risk of Drug Drug Interaction (DDI))
